Measured values taken from ChEMBL document CHEMBL2029312, “The antibacterial activity of 4,4'-bipyridinium amphiphiles with conventional, bicephalic and gemini architectures” (Bioorg Med Chem Lett, 2012).

Legend:
Staphylococcus aureus [1] = assay: Antibacterial activity against Staphylococcus aureus subsp. aureus ATCC 29213 after 72 hrs by broth microdilution method; format: functional
Enterococcus faecalis [2] = assay: Antibacterial activity against Enterococcus faecalis ATCC 29212 after 72 hrs by broth microdilution method; format: functional
Escherichia coli [3] = assay: Antibacterial activity against Escherichia coli ATCC 25922 after 72 hrs by broth microdilution method; format: functional
Pseudomonas aeruginosa [4] = assay: Antibacterial activity against Pseudomonas aeruginosa Boston 41501 ATCC 27853 after 72 hrs by broth microdilution method; format: functional
[5] = Solubility of the compound in water; format: physicochemical; details: buffer
Staphylococcus aureus [6] = assay: Ratio of benzalkonium chloride MIC to compound MIC for Staphylococcus aureus subsp. aureus ATCC 29213; format: functional
Enterococcus faecalis [7] = assay: Ratio of benzalkonium chloride MIC to compound MIC for Enterococcus faecalis ATCC 29212; format: functional
Escherichia coli [8] = assay: Ratio of benzalkonium chloride MIC to compound MIC for Escherichia coli ATCC 25922; format: functional
Pseudomonas aeruginosa [9] = assay: Ratio of benzalkonium chloride MIC to compound MIC for Pseudomonas aeruginosa Boston 41501 ATCC 27853; format: functional
[10] = Staphylococcus aureus, ATCC 29213, 72 h, read-out: MIC
[11] = Enterococcus faecalis, ATCC 29212, 72 h, read-out: MIC
[12] = Escherichia coli, ATCC 25922, 72 h, read-out: MIC
[13] = Pseudomonas aeruginosa, Boston 41501 ATCC 27853, 72 h, read-out: MIC

Structure (SMILES)	MIC (Staphylococcus aureus [1]) [µM]	MIC (Enterococcus faecalis [2]) [µM]	MIC (Escherichia coli [3]) [µM]	MIC (Pseudomonas aeruginosa [4]) [µM]	solubility [5]	MIC (Staphylococcus aureus [1]; [10]) [µM]	MIC (Enterococcus faecalis [2]; [11]) [µM]	MIC (Escherichia coli [3]; [12]) [µM]	MIC (Pseudomonas aeruginosa [4]; [13]) [µM]	Ratio (Staphylococcus aureus [6])	Ratio (Enterococcus faecalis [7])	Ratio (Escherichia coli [8])	Ratio (Pseudomonas aeruginosa [9])
CCCCCCCCCC[n+]1ccc(-c2cc[n+](CCCCCCCCCC)cc2)cc1.[Cl-].[Cl-]	2	4	8	63	–	–	–	–	–	–	–	–	–
CCCCCCCCCC[n+]1ccc(-c2cc[n+](CCCCCCCCCC)cc2)cc1.[I-].[I-]	2	4	8	63	Insoluble	–	–	–	–	–	–	–	–
CCCCCCCCCCC[n+]1ccc(-c2cc[n+](CCCCCCCCCCC)cc2)cc1.[Cl-].[Cl-]	2	2	2	8	–	–	–	–	–	–	–	–	–
CCCCCCCCCCC[n+]1ccc(-c2cc[n+](CCCCCCCCCCC)cc2)cc1.[I-].[I-]	4	8	8	63	Insoluble	–	–	–	–	–	–	–	–
CCCCCCCCCCCC[n+]1ccc(-c2cc[n+](CCCCCCCCCCCC)cc2)cc1.[Cl-].[Cl-]	2	4	4	16	–	–	–	–	–	–	–	–	–
CCCCCCCCCCCC[n+]1ccc(-c2cc[n+](CCCCCCCCCCCC)cc2)cc1.[I-].[I-]	8	16	16	31	Insoluble	–	–	–	–	–	–	–	–
CCCCCCCCCCCCCCCC[n+]1ccc(-c2cc[n+](CCCCCCCCCCCCCCCC)cc2)cc1.[Cl-].[Cl-]	>250	>250	>250	>250	Insoluble	–	–	–	–	–	–	–	–
CCCCCCCCCCCCCCCC[n+]1ccc(-c2cc[n+](CCCCCCCCCCCCCCCC)cc2)cc1.[I-].[I-]	>250	>250	>250	>250	Insoluble	–	–	–	–	–	–	–	–
CCCCCCCCCCCC[n+]1ccc(-c2cc[n+](CCCCCCCCCC)cc2)cc1	–	–	–	–	–	2	2	2	8	–	–	–	–
CCCCCCCCCCCCCC[n+]1ccc(-c2cc[n+](CCCCCCCC)cc2)cc1	–	–	–	–	–	2	2	2	16	–	–	–	–
CCCCCCCCCCCCCCCC[n+]1ccc(-c2cc[n+](CCCCCC)cc2)cc1	–	–	–	–	–	2	8	8	31	–	–	–	–
CCCCCCCCCCCCCCCCCC[n+]1ccc(-c2cc[n+](CCCC)cc2)cc1	–	–	–	–	–	8	31	31	125	–	–	–	–
CCCCCCCCCCCCCCCCCCCC[n+]1ccc(-c2cc[n+](CC)cc2)cc1	–	–	–	–	–	16	31	125	> 250	–	–	–	–
CCCCCCCCCCCCCCCCCCCC[n+]1ccc(-c2cc[n+](C)cc2)cc1.[Br-].[I-]	–	–	–	–	Insoluble	16	31	125	> 250	–	–	–	–
CCCCCCCCCCCCCCCCCCCC[n+]1ccc(-c2ccncc2)cc1.[Br-]	–	–	–	–	Insoluble	> 250	> 250	> 250	> 250	–	–	–	–
CCCCCCCCCCCCCCCCCC[n+]1ccc(-c2cc[n+](CC)cc2)cc1	–	–	–	–	–	8	31	31	125	–	–	–	–
CCCCCCCCCCCCCCCCCC[n+]1ccc(-c2cc[n+](C)cc2)cc1.[Br-].[I-]	–	–	–	–	Insoluble	8	31	31	63	–	–	–	–
CCCCCCCCCCCCCCCCCC[n+]1ccc(-c2ccncc2)cc1.[Br-]	–	–	–	–	Insoluble	16	31	> 250	> 250	–	–	–	–

Structure (SMILES)	MIC (Staphylococcus aureus [1]) [µM]	MIC (Enterococcus faecalis [2]) [µM]	MIC (Escherichia coli [3]) [µM]	MIC (Pseudomonas aeruginosa [4]) [µM]	solubility [5]	MIC (Staphylococcus aureus [1]; [10]) [µM]	MIC (Enterococcus faecalis [2]; [11]) [µM]	MIC (Escherichia coli [3]; [12]) [µM]	MIC (Pseudomonas aeruginosa [4]; [13]) [µM]	Ratio (Staphylococcus aureus [6])	Ratio (Enterococcus faecalis [7])	Ratio (Escherichia coli [8])	Ratio (Pseudomonas aeruginosa [9])
CCCCCCCCCCCCCCCC[n+]1ccc(-c2cc[n+](CC)cc2)cc1.[Br-].[Br-]	–	–	–	–	Insoluble	16	63	63	250	–	–	–	–
CCCCCCCCCCCCCCCC[n+]1ccc(-c2cc[n+](C)cc2)cc1.[Br-].[I-]	–	–	–	–	Insoluble	4	31	31	125	–	–	–	–
CCCCCCCCCCCCCCCC[n+]1ccc(-c2ccncc2)cc1.[Br-]	–	–	–	–	Insoluble	8	16	63	> 250	–	–	–	–
CCCCCCCCCCCCCC[n+]1ccc(-c2cc[n+](CC)cc2)cc1	–	–	–	–	–	8	31	63	250	–	–	–	–
CCCCCCCCCCCCCC[n+]1ccc(-c2cc[n+](C)cc2)cc1.[Br-].[I-]	–	–	–	–	Insoluble	4	31	63	125	–	–	–	–
CCCCCCCCCCCCCC[n+]1ccc(-c2ccncc2)cc1	–	–	–	–	–	8	16	31	125	–	–	–	–
CCCCCCCCCCCC[n+]1ccc(-c2cc[n+](CC)cc2)cc1	–	–	–	–	–	63	250	250	> 250	–	–	–	–
CCCCCCCCCCCC[n+]1ccc(-c2cc[n+](C)cc2)cc1.[Br-].[I-]	–	–	–	–	Insoluble	31	63	125	250	–	–	–	–
CCCCCCCCCCCC[n+]1ccc(-c2ccncc2)cc1	–	–	–	–	–	16	63	63	> 250	–	–	–	–
CCCCCCCCCCCCCCCCCC[n+]1ccc(-c2cc[n+](CCCCCCCCCCCCCCCCCC)cc2)cc1.[Br-].[Br-]	–	–	–	–	Insoluble	> 250	> 250	> 250	> 250	–	–	–	–
CCCCCCCCCCCCCCCC[n+]1ccc(-c2cc[n+](CCCCCCCCCCCCCCCC)cc2)cc1.[Br-].[Br-]	–	–	–	–	Insoluble	250	> 250	> 250	> 250	–	–	–	–
CCCCCCCCCCCCCC[n+]1ccc(-c2cc[n+](CCCCCCCCCCCCCC)cc2)cc1.[Br-].[Br-]	–	–	–	–	Insoluble	16	31	250	> 250	–	–	–	–
CCCCCCCCCCCCC[n+]1ccc(-c2cc[n+](CCCCCCCCCCCCC)cc2)cc1.[Br-].[Br-]	–	–	–	–	Insoluble	8	8	16	250	–	–	–	–
CCCCCCCCCCCC[n+]1ccc(-c2cc[n+](CCCCCCCCCCCC)cc2)cc1.[Br-].[Br-]	2	4	4	–	–	–	–	–	31	–	–	–	–
CCCCCCCCCCC[n+]1ccc(-c2cc[n+](CCCCCCCCCCC)cc2)cc1.[Br-].[Br-]	–	2	2	16	–	2	–	–	–	4	4	4	4
CCCCCCCCCC[n+]1ccc(-c2cc[n+](CCCCCCCCCC)cc2)cc1	–	–	–	–	–	2	4	8	63	–	–	–	–
CCCCCCCC[n+]1ccc(-c2cc[n+](CCCCCCCC)cc2)cc1	–	–	–	–	–	125	250	> 250	> 250	–	–	–	–
C[n+]1ccc(-c2cc[n+](C)cc2)cc1	–	–	–	–	–	> 250	> 250	> 250	> 250	–	–	–	–
